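Five compound concentrations were applied to cells in 96-well plates for 48 hours; endpoints were derived by simple linear interpolation of the resulting dose-response curve. Definition used: TGI = concentration required for complete inhibition of growth.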
How the values were obtained:
Test in all cases: NCI anticancer screen, dose series, 48 h
[1] = tested on: NCI-H23 lung
[2] = tested on: OVCAR-3 ovarian
[3] = tested on: HOP-62 NSCLC
[4] = tested on: MDA-MB-435
[5] = tested on: PC-3 prostate
[6] = tested on: HCC-2998 colon
[7] = tested on: CCRF-CEM leukemia
[8] = tested on: COLO 205 colon
[9] = tested on: NCI/ADR-RES ovarian
[10] = tested on: SN12C renal
[11] = tested on: SK-OV-3 ovarian
[12] = tested on: OVCAR-8 ovarian
[13] = tested on: SW-620 colon
[14] = tested on: SK-MEL-2 melanoma
[15] = tested on: UO-31 renal
[16] = tested on: A498 renal
[17] = tested on: MCF7 breast
[18] = tested on: MALME-3M melanoma
[19] = tested on: TK-10 renal
[20] = tested on: NCI-H226 lung
[21] = tested on: HOP-92 NSCLC
[22] = tested on: RXF 393 renal
[23] = tested on: HCT-116 colon
[24] = tested on: IGROV1 ovarian
[25] = tested on: 786-0 renal
[26] = tested on: UACC-257 melanoma
[27] = tested on: SF-268 CNS
[28] = tested on: ACHN renal
[29] = tested on: A549 NSCLC
[30] = tested on: SNB-19 CNS
[31] = tested on: SK-MEL-28 melanoma
[32] = tested on: M14 melanoma
[33] = tested on: SK-MEL-5 melanoma
[34] = tested on: EKVX NSCLC
[35] = tested on: LOX IMVI melanoma
[36] = tested on: DU-145 prostate
[37] = tested on: UACC-62 melanoma
[38] = tested on: CAKI-1 renal
[39] = tested on: HT29 colon
[40] = tested on: HS 578T breast
[41] = tested on: KM12 colon
[42] = tested on: NCI-H460 lung
[43] = tested on: SNB-75 CNS
[44] = tested on: HL-60(TB) leukemia
[45] = tested on: U251 CNS
[46] = tested on: T-47D breast
[47] = tested on: MDA-MB-231 breast
[48] = tested on: MDA-N
[49] = tested on: OVCAR-4 ovarian
[50] = tested on: NCI-H522 lung
[51] = tested on: HCT-15 colon
[52] = tested on: BT-549 breast
[53] = tested on: OVCAR-5 ovarian
[54] = tested on: SF-295 CNS
[55] = tested on: SF-539 CNS

OC(CCN1CCN(CCOC(c2ccccc2)c2ccccc2)CC1)c1ccccc1 (stereo not given)
TGI [1]: 63.1 µM | TGI [2]: 81.1 µM | TGI [3]: 44.3 µM | TGI [4]: 38.3 µM | TGI [5]: 65.5 µM | TGI [6]: 28.9 µM | TGI [7]: > 100 µM | TGI [8]: 29.1 µM | TGI [9]: 73.1 µM | TGI [10]: 82.3 µM | TGI [11]: > 100 µM | TGI [12]: 33 µM | TGI [13]: > 100 µM | TGI [14]: 31.6 µM | TGI [15]: 44 µM | TGI [16]: 21.6 µM | TGI [17]: 47.4 µM | TGI [18]: 32.6 µM | TGI [19]: 59.8 µM | TGI [20]: 88.2 µM | TGI [21]: 75.8 µM | TGI [22]: 48.6 µM | TGI [23]: 34.3 µM | TGI [24]: 59.3 µM | TGI [25]: 33.8 µM | TGI [26]: 34.8 µM | TGI [27]: 57 µM | TGI [28]: > 100 µM | TGI [29]: > 100 µM | TGI [30]: 88.6 µM | TGI [31]: 34.4 µM | TGI [32]: 34.1 µM | TGI [33]: 29.6 µM | TGI [34]: 45.8 µM | TGI [35]: 34.2 µM | TGI [36]: > 100 µM | TGI [37]: 30.2 µM | TGI [38]: > 100 µM | TGI [39]: 33.5 µM | TGI [40]: 45 µM | TGI [41]: 51.1 µM | TGI [42]: 35.7 µM | TGI [43]: > 100 µM | TGI [44]: 44.3 µM | TGI [45]: 36 µM | TGI [46]: 48.8 µM | TGI [47]: 33.6 µM | TGI [48]: 36.8 µM | TGI [49]: > 100 µM | TGI [50]: 32.7 µM | TGI [51]: 37.1 µM | TGI [52]: 60.5 µM | TGI [53]: > 100 µM | TGI [54]: 38.8 µM | TGI [55]: 36.8 µM

Source: PubChem BioAssay (NCI)
